Reference: ChEMBL document CHEMBL1909046, “DrugMatrix in vitro pharmacology data”

Tests used:
[1] = target: T1, Alpha-1D adrenergic receptor (Homo sapiens, UniProt P25100); type: cell membranes, HEK293, Membrane; conditions: hek293; also: in other assays of this panel Not Active means under 50% inhibition at 10 µM
T1 sequence (P25100 whole entry): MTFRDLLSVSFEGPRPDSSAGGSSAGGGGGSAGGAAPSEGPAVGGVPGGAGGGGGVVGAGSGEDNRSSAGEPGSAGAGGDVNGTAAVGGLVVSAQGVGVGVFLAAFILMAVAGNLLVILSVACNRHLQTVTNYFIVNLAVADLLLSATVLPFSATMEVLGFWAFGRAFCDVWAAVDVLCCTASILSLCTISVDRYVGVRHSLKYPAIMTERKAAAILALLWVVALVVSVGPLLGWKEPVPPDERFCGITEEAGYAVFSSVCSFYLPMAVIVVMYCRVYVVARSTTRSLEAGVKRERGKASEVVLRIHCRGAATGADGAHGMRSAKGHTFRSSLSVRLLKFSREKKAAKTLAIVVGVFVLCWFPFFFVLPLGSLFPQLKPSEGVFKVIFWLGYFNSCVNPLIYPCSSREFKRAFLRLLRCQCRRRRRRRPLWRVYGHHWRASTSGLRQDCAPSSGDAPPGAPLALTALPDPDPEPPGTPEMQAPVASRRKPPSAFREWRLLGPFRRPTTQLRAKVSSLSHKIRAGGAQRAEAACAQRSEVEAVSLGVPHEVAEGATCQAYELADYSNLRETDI

[2] = target: Sodium-dependent noradrenaline transporter (Homo sapiens, UniProt P23975); test: DRUGMATRIX: Norepinephrine Transporter radioligand binding (ligand: [125I] RTI-55); type: cell membranes, MDCK, Membrane; conditions: mdck; Not Active = under 50% inhibition at 10 µM
[3] = DRUGMATRIX: Tumor Necrosis Factor (TNF), Non-Selective radioligand binding (ligand: [125I] TNF-alpha); type: cell membranes, Membrane; conditions: u-937; Not Active = under 50% inhibition at 10 µM
[4] = target: T2, Cholecystokinin receptor type A (Homo sapiens, UniProt P32238); type: cell membranes, Membrane; conditions: 1321-n1; also: in other assays of this panel Not Active means under 50% inhibition at 10 µM
T2 sequence (P32238 whole entry): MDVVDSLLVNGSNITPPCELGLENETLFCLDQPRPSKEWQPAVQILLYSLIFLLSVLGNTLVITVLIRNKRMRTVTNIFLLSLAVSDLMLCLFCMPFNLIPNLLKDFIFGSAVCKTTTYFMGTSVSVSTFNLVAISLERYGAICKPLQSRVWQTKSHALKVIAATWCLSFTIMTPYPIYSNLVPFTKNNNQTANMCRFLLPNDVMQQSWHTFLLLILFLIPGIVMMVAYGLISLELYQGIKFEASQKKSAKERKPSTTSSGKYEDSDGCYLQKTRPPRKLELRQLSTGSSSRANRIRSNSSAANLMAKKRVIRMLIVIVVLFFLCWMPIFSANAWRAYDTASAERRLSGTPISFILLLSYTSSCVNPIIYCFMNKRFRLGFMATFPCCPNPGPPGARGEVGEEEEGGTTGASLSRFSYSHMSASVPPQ

D(1A) dopamine receptor = D(1A) dopamine receptor (Homo sapiens, UniProt P21728); test: DRUGMATRIX: Dopamine D1 radioligand binding (ligand: [3H] SCH-23390); type: cell membranes, Membrane; conditions: cho; Not Active = under 50% inhibition at 10 µM
[5] = DRUGMATRIX: Glutamate, NMDA, Agonism radioligand binding (ligand: [3H] CGP-39653); type: cell membranes, Rattus norvegicus, Wistar, Cerebral cortex, Membrane; conditions: Not Active = under 50% inhibition at 10 µM
Histamine H2 receptor = Histamine H2 receptor (Homo sapiens, UniProt P25021); type: cell membranes, CHO-K1, Membrane; conditions: cho-k1; also: in other assays of this panel Not Active means under 50% inhibition at 10 µM
[6] = target: Platelet-activating factor receptor (Homo sapiens, UniProt P25105); type: tissue-based; also: in other assays of this panel Not Active means under 50% inhibition at 10 µM
Cytochrome P450 1A2 = target: T3, Cytochrome P450 1A2 (Homo sapiens, UniProt P05177); conditions: bti-tn-5b1-4; also: in other assays of this panel Not Active means under 50% inhibition at 10 µM
T3 sequence (P05177 whole entry): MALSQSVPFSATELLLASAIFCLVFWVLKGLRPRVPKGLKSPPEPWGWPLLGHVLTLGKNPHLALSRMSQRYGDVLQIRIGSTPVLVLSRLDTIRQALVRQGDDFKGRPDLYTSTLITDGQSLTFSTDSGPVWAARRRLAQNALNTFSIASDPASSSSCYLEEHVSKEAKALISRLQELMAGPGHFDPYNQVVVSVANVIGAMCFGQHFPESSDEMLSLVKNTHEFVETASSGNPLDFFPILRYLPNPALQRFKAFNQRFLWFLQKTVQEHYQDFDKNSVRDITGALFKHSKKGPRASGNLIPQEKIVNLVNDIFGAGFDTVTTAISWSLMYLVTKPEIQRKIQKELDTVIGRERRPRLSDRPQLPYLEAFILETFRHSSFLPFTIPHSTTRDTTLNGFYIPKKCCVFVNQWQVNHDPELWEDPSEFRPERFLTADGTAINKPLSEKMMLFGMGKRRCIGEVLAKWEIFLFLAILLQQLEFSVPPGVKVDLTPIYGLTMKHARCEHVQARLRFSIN

[7] = target: Voltage-gated inwardly rectifying potassium channel KCNH2 (Homo sapiens, UniProt Q12809); conditions: hek293; also: in other assays of this panel Not Active means under 50% inhibition at 10 µM
Chain of Voltage-gated inwardly rectifying potassium channel KCNH2 (Q12809 whole entry): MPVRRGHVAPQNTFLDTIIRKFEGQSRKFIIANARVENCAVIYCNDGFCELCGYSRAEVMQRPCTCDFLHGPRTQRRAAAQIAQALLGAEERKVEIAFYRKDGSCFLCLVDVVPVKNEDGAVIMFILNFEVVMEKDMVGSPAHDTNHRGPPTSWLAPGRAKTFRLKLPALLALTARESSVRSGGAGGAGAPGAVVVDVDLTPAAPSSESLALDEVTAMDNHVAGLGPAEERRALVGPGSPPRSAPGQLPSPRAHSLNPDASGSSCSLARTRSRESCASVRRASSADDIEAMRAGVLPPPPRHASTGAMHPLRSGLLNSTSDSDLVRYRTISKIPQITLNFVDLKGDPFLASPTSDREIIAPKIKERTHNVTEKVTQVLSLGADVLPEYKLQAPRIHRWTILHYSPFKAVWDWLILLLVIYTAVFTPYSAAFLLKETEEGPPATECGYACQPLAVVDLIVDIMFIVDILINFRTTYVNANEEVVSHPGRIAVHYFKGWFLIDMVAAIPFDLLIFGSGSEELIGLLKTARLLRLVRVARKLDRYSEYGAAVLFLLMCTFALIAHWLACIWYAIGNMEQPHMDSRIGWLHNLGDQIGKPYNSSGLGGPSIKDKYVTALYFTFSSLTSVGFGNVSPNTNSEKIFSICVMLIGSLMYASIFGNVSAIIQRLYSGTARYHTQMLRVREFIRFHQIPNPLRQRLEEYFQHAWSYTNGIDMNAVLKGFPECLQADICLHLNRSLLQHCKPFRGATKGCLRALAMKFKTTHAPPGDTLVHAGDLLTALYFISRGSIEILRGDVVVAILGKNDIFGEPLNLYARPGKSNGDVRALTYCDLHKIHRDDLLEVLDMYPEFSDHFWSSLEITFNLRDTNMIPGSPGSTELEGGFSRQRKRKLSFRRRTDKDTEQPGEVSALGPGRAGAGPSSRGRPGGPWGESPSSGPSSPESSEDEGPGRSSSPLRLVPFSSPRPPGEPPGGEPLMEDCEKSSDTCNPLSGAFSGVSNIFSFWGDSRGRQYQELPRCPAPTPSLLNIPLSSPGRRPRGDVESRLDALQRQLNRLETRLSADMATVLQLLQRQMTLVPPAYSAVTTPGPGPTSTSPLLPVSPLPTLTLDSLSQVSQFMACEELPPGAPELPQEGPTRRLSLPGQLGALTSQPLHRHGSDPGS

Chain of Histamine H2 receptor (P25021 whole entry): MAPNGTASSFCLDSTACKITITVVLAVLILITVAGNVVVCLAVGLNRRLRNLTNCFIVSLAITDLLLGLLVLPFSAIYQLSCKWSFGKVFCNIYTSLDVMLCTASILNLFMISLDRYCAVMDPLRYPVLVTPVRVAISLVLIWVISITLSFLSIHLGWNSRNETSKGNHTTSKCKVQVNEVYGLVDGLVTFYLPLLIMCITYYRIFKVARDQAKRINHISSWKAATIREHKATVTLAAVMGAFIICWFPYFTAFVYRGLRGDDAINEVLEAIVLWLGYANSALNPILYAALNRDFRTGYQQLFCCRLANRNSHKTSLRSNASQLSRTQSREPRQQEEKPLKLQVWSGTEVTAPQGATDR
Chain of Sodium-dependent noradrenaline transporter (P23975 whole entry): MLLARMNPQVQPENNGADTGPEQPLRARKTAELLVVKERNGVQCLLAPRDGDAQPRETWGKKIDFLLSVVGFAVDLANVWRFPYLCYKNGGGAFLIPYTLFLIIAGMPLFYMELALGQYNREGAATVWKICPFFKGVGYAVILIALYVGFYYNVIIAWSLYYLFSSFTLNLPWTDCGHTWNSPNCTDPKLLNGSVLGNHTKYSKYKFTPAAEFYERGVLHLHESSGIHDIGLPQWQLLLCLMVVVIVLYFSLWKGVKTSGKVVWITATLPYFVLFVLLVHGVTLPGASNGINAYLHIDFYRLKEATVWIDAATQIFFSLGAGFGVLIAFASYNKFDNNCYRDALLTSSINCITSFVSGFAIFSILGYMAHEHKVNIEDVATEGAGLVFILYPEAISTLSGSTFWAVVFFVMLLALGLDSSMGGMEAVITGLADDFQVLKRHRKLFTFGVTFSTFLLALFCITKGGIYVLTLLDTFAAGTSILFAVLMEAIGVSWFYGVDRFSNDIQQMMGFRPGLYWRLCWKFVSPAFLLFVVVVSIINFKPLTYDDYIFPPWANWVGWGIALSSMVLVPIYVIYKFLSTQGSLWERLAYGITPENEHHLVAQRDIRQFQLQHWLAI
Chain of D(1A) dopamine receptor (P21728 whole entry): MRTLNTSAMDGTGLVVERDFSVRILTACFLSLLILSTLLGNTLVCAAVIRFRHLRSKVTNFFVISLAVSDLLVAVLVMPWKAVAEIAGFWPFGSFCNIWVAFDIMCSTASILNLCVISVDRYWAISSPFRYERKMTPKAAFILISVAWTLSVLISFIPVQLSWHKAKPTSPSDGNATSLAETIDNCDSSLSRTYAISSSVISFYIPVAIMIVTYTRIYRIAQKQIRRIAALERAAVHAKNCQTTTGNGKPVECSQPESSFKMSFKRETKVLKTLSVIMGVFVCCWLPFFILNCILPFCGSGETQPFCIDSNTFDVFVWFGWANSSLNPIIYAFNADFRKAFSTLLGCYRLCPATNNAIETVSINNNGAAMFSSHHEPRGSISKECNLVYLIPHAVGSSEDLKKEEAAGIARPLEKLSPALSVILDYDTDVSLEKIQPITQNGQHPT
Chain of Platelet-activating factor receptor (P25105 whole entry): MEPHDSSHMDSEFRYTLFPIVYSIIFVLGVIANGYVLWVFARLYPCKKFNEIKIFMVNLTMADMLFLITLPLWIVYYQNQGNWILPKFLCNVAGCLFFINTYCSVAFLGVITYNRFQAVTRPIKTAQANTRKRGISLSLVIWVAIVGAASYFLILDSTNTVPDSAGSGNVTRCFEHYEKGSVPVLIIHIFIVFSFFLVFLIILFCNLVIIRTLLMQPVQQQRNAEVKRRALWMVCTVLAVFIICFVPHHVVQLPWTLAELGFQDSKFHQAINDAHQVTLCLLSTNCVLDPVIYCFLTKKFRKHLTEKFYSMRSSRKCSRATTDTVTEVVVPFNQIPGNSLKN

CC(=O)N[C@@H]1[C@H](Oc2c3cc4cc2Oc2ccc(cc2Cl)[C@@H](O[C@@H]2O[C@@H](CO)[C@@H](O)[C@H](O)[C@@H]2NC(C)=O)[C@@H]2NC(=O)[C@H](NC(=O)[C@@H]4NC(=O)[C@H]4NC(=O)[C@@H](Cc5ccc(c(Cl)c5)O3)NC(=O)[C@H](N)c3ccc(O)c(c3)Oc3cc(O)cc4c3)c3ccc(O)c(c3)-c3c(O[C@H]4O[C@H](CO)[C@@H](O)[C@@H](O)[C@@H]4O)cc(O)cc3[C@@H](C(=O)O)NC2=O)O[C@@H](CO)[C@@H](O)[C@@H]1O
Not Active: IC50 [1] | IC50 [2] | IC50 [3] | Ki [3] | IC50 [4] | IC50 (D(1A) dopamine receptor) | IC50 [5] | Ki [5] | IC50 (Histamine H2 receptor) | IC50 [6] | IC50 (Cytochrome P450 1A2) | Ki (Cytochrome P450 1A2) | IC50 [7] | Ki [7]

COCCCOc1ccnc(C[S+]([O-])c2nc3ccccc3[nH]2)c1C (stereo not given) [RABEPRAZOLE]
Not Active: IC50 [1] | IC50 [2] | IC50 [3] | Ki [3] | IC50 [4] | IC50 (D(1A) dopamine receptor) | IC50 [5] | Ki [5] | IC50 (Histamine H2 receptor) | IC50 [6] | IC50 (Cytochrome P450 1A2) | Ki (Cytochrome P450 1A2) | IC50 [7] | Ki [7]

CNC(=C[N+](=O)[O-])NCCSCc1ccc(CN(C)C)o1 [RANITIDINE]
Not Active: IC50 [1] | IC50 [2] | IC50 [3] | Ki [3] | IC50 [4] | IC50 (D(1A) dopamine receptor) | IC50 [5] | Ki [5] | IC50 (Histamine H2 receptor) | IC50 [6] | IC50 (Cytochrome P450 1A2) | Ki (Cytochrome P450 1A2) | IC50 [7] | Ki [7]

CO[C@H]1/C=C/O[C@@]2(C)Oc3c(C)c(O)c4c(c3C2=O)C2=NC3(CCN(CC(C)C)CC3)NC2=C(NC(=O)/C(C)=C\C=C\[C@H](C)[C@H](O)[C@@H](C)[C@@H](O)[C@@H](C)[C@H](OC(C)=O)[C@@H]1C)C4=O [RIFABUTIN]
Not Active: IC50 [1] | IC50 [2] | IC50 [3] | Ki [3] | IC50 [4] | IC50 (D(1A) dopamine receptor) | IC50 [5] | Ki [5] | IC50 (Histamine H2 receptor) | IC50 [6] | IC50 (Cytochrome P450 1A2) | Ki (Cytochrome P450 1A2) | IC50 [7] | Ki [7]

[H]/N=C(/N)N[C@H]1[C@H](O)[C@@H](O)[C@H](O[C@@H]2O[C@@H](C)[C@](O)(C=O)[C@H]2O[C@@H]2O[C@@H](CO)[C@H](O)[C@@H](O)[C@@H]2NC)[C@@H](N/C(N)=N\[H])[C@@H]1O [STREPTOMYCIN]
Not Active: IC50 [1] | IC50 [2] | IC50 [3] | Ki [3] | IC50 [4] | IC50 (D(1A) dopamine receptor) | IC50 [5] | Ki [5] | IC50 (Histamine H2 receptor) | IC50 [6] | IC50 (Cytochrome P450 1A2) | Ki (Cytochrome P450 1A2) | IC50 [7] | Ki [7]

COc1cc(NS(=O)(=O)c2ccc(N)cc2)nc(OC)n1 [SULFADIMETHOXINE]
Not Active: IC50 [1] | IC50 [2] | IC50 [3] | Ki [3] | IC50 [4] | IC50 (D(1A) dopamine receptor) | IC50 [5] | Ki [5] | IC50 (Histamine H2 receptor) | IC50 [6] | IC50 (Cytochrome P450 1A2) | Ki (Cytochrome P450 1A2) | IC50 [7] | Ki [7]

Cc1cc(C)nc(NS(=O)(=O)c2ccc(N)cc2)n1 [SULFAMETHAZINE]
Not Active: IC50 [1] | IC50 [2] | IC50 [3] | Ki [3] | IC50 [4] | IC50 (D(1A) dopamine receptor) | IC50 [5] | Ki [5] | IC50 (Histamine H2 receptor) | IC50 [6] | IC50 (Cytochrome P450 1A2) | Ki (Cytochrome P450 1A2) | IC50 [7] | Ki [7]

C[C@]1(Cn2ccnn2)[C@H](C(=O)O)N2C(=O)C[C@H]2S1(=O)=O [TAZOBACTAM]
Not Active: IC50 [1] | IC50 [2] | IC50 [3] | Ki [3] | IC50 [4] | IC50 (D(1A) dopamine receptor) | IC50 [5] | Ki [5] | IC50 (Histamine H2 receptor) | IC50 [6] | IC50 (Cytochrome P450 1A2) | Ki (Cytochrome P450 1A2) | IC50 [7] | Ki [7]

CN1C(C(=O)Nc2ccccn2)=C(O)c2sccc2S1(=O)=O [TENOXICAM]
Not Active: IC50 [1] | IC50 [2] | IC50 [3] | Ki [3] | IC50 [4] | IC50 (D(1A) dopamine receptor) | IC50 [5] | Ki [5] | IC50 (Histamine H2 receptor) | IC50 [6] | IC50 (Cytochrome P450 1A2) | Ki (Cytochrome P450 1A2) | IC50 [7] | Ki [7]

O=C1CCC(N2C(=O)c3ccccc3C2=O)C(=O)N1 (stereo not given) [THALIDOMIDE]
Not Active: IC50 [1] | IC50 [2] | IC50 [3] | Ki [3] | IC50 [4] | IC50 (D(1A) dopamine receptor) | IC50 [5] | Ki [5] | IC50 (Histamine H2 receptor) | IC50 [6] | IC50 (Cytochrome P450 1A2) | Ki (Cytochrome P450 1A2) | IC50 [7] | Ki [7]
